Where two headings read alike, the source gives them in different places.
Tests used:
Format in all cases: in vivo
Spodoptera littoralis [1] = experiment: Comparison: insecticidal activity against Spodoptera littoralis, larvicide L-3, feeding/contact, soybean plants; details: 120 h
Experimental: (§1) Biological Comparison Data:
(§2) Compound A and B are disclosed in WO2014/122083 as example (Ic-1) (p. 76) and (lc-2) (p. 82, Table 3). The activities of compounds A and B to treat different pests are compared with the activities of compound 4, 6, 15 and 35 according to the present invention. The tests are carried out at different concentrations (ppm).
a) Insecticidal Activity Against Spodoptera littoralis (Egyptian Cotton Leaf Worm, Larvicide L-3, Feeding/Contact)
Soybean plants were sprayed with diluted test solutions in an application chamber. The plants (2 replicates) were infested with 10 L3 larvae 1 day after treatment. Samples were checked 5 days after infestation for mortality, feeding behavior, and growth regulation.

Thrips tabaci [2] = experiment: Thrips tabaci (onion thrips), sunflower leaf disc test; details: foliar, 144 h, read-out: control (mortality)
Experimental: Thrips tabaci (Onion Thrips):
(§3) Sunflower leaf discs were placed on agar in 24-well microtiter plates and sprayed with aqueous test solutions prepared from 10′000 ppm DMSO stock solutions. After drying the leaf discs were infested with a thrips population of mixed ages. The samples were assessed for mortality 6 days after infestation.

Thrips tabaci [3] = experiment: Comparison: insecticidal activity against Thrips tabaci, sunflower leaf discs; details: Thrips tabaci, foliar, 144 h, 6 days after infestation, read-out: Mortality (%)
Experimental: as §1, §2
b) Insecticidal Activity Against Thrips tabaci (Onion Thrips):
as §3

Diabrotica balteata = Diabrotica balteata (corn root worm), maize sprout test; details: 96 h, read-out: control (mortality and growth inhibition)
Experimental: Diabrotica balteata, (Corn Root Worm)
Maize sprouts, placed on an agar layer in 24-well microtiter plates were treated with aqueous test solutions prepared from 10′000 ppm DMSO stock solutions by spraying. After drying, the plates were infested with L2 larvae (6 to 10 per well). The samples were assessed for mortality and growth inhibition in comparison to untreated samples 4 days after infestation.

Spodoptera littoralis [4] = experiment: Spodoptera littoralis (Egyptian cotton leaf worm), cotton leaf disc spray test; details: foliar, 72 h, read-out: control (at least one of mortality, anti-feedant effect, growth inhibition); for percent control (mortality, anti-feedant effect or growth inhibition) at 200 ppm: application rate 200 ppm, L1 larvae, 3 days after infestation
Summary of the method: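 Cotton leaf discs on agar were sprayed with aqueous dilutions of 10′000 ppm DMSO stocks, dried and infested with five L1 larvae. Mortality, anti-feedant effect and growth inhibition were scored against untreated samples 3 days after infestation. Control = any of these higher than untreated.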

Myzus persicae [5] = experiment: Myzus persicae (green peach aphid), sucrose solution / Parafilm test; details: 120 h
Summary of the method: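 Compound mixed into sucrose solution at 12.5 ppm under stretched Parafilm; aphid-infested pea seedlings set on the membrane and plate inverted so insects feed through it. Mortality assessed 5 days after infestation.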

Euschistus heros = Euschistus heros (neotropical brown stink bug), soybean leaf test; details: 120 h, read-out: effect in at least one of the two categories (mortality or growth inhibition); for percent effect (mortality or growth inhibition) at 200 ppm: application rate 200 ppm, N2 nymphs, 5 days after infestation
Experimental: Euschistus heros (Neotropical Brown Stink Bug):
Soybean leaves on agar in 24-well microtiter plates were sprayed with aqueous test solutions prepared from 10′000 ppm DMSO stock solutions. After drying the leaves were infested with N2 nymphs. The samples were assessed for mortality and growth inhibition in comparison to untreated samples 5 days after infestation.

Plutella xylostella = Plutella xylostella (diamond back moth), artificial diet test; details: 120 h, read-out: control (mortality and growth inhibition)
Experimental: Plutella xylostella (Diamond Back Moth):
24-well microtiter plates with artificial diet were treated with aqueous test solutions prepared from 10′000 ppm DMSO stock solutions by pipetting. After drying, the plates were infested with L2 larvae (10 to 15 per well). The samples were assessed for mortality and growth inhibition in comparison to untreated samples 5 days after infestation.

Myzus persicae [6] = experiment: Myzus persicae (green peach aphid), sunflower leaf disc spray test; details: foliar, 144 h
Experimental: Myzus persicae (Green Peach Aphid):
Sunflower leaf discs were placed on agar in a 24-well microtiter plate and sprayed with test solutions at an application rate of 200 ppm. After drying, the leaf discs were infested with an aphid population of mixed ages. After an incubation period of 6 DAT, samples were checked for mortality. The following compounds gave at least 80% mortality of Myzus persicae: compounds 1,2, 3, 4, 5, 6, 11, 12, 15, 17, 18, 19, 20, 23, 24, 25, 26, 27, 30, 32, 33, 34 35, 41, 43, 44, 47, 50, 55, 58, 59, 60, 61, 62, 63, 64, 65 and 66.

Tetranychus urticae = Tetranychus urticae (two-spotted spider mite), bean leaf disc test; details: foliar, 192 h, read-out: control (mortality on mixed population, mobile stages)
Experimental: Tetranychus urticae (Two-Spotted Spider Mite):
as §3, with “Bean” for “Sunflower”, “discs” for “discs were placed”, “were” for “and”, “mite” for “thrips”, “on mixed population (mobile stages) 8” for “6”

[7] = application rate 200 ppm, mixed ages, 6 days after infestation
[8] = application rate 200 ppm, L2 larvae, 4 days after infestation
[9] = test rate of 12 ppm, sucrose solution, 5 days after infestation, read-out: mortality
[10] = application rate 200 ppm, L2 larvae, 5 days after infestation
[11] = application rate 200 ppm, mixed ages, 6 DAT, read-out: mortality
[12] = application rate 200 ppm, 8 days after infestation

Structure (SMILES)	mortality at 200 ppm (Thrips tabaci [2]; [7]) [%]	mortality at 200 ppm (Diabrotica balteata; [8]) [%]	percent control (mortality, anti-feedant effect or growth inhibition) at 200 ppm (Spodoptera littoralis [4]) [%]	mortality at 12 ppm (Myzus persicae [5]; [9]) [%]	percent effect (mortality or growth inhibition) at 200 ppm (Euschistus heros) [%]	mortality at 200 ppm (Plutella xylostella; [10]) [%]	mortality at 200 ppm (Myzus persicae [6]; [11]) [%]	mortality at 200 ppm (Tetranychus urticae; [12]) [%]	further results
Cn1nc(C(F)(F)C(F)(F)F)c(C(F)(F)F)c1-n1cc(-c2ccc(Cl)c(C(=O)NC3CC3)c2)cn1 [A, reference compound]									mortality at 0.2 ppm (Spodoptera littoralis [1]): 0%; mortality at 0.8 ppm (Spodoptera littoralis [1]): 15%; mortality at 3 ppm (Spodoptera littoralis [1]): 55%; mortality at 12.5 ppm (Spodoptera littoralis [1]): 85%
Cn1nc(OC(F)C(F)(F)C(F)(F)F)c(C(F)(F)F)c1-n1cc(-c2ccc(Cl)c(C(=O)NC3(C#N)CC3)c2)cn1 (stereo not shown) [compound 4]	≥ 80	≥ 80	≥ 80	≥ 80	≥ 80	≥ 80	≥ 80	≥ 80	mortality at 0.05 ppm (Thrips tabaci [3]; 0.05 ppm): 65%; mortality at 0.2 ppm (Thrips tabaci [3]; 0.2 ppm): 90%; mortality at 0.8 ppm (Thrips tabaci [3]; 0.8 ppm): 100%; mortality at 3 ppm (Thrips tabaci [3]; 3 ppm): 100%; mortality at 12.5 ppm (Thrips tabaci [3]): 100%
Cn1nc(OC(F)(F)C(F)(F)Br)c(C(F)(F)F)c1-n1cc(-c2ccc(Cl)c(C(=O)NC3(C#N)CC3)c2)cn1 [compound 12]	≥ 80	≥ 80	≥ 80	≥ 80	≥ 80	≥ 80	≥ 80	≥ 80	
Cn1nc(OC(F)(F)C(F)(F)C(F)(F)F)c(C(F)(F)F)c1-n1cc(-c2ccc(Cl)c(C(=O)NC3(C#N)CC3)c2)cn1 [compound 35]									mortality at 200 ppm (Thrips tabaci [2]): ≥ 80%; mortality at 200 ppm (Diabrotica balteata): ≥ 80%; mortality at 200 ppm (Spodoptera littoralis [4]): ≥ 80%; mortality at 12 ppm (Myzus persicae [5]): ≥ 80%; percent control (mortality or growth inhibition) at 200 ppm (Euschistus heros): ≥ 80%; mortality at 200 ppm (Plutella xylostella): ≥ 80%; mortality at 200 ppm (Myzus persicae [6]): ≥ 80%; mortality at 200 ppm (Tetranychus urticae): ≥ 80%; mortality at 0.2 ppm (Spodoptera littoralis [1]): 0%; mortality at 0.8 ppm (Spodoptera littoralis [1]): 100%; mortality at 3 ppm (Spodoptera littoralis [1]): 100%; mortality at 12.5 ppm (Spodoptera littoralis [1]): 100%
Cn1nc(OCC(F)(F)F)c(C(F)(F)F)c1-n1cc(-c2ccc(Cl)c(C(=O)NC3(C#N)CC3)c2)cn1 [compound 3]	≥ 80	≥ 80	≥ 80	≥ 80	≥ 80	≥ 80	≥ 80	≥ 80	
Cn1nc(OC(F)(F)C(F)OC(F)(F)F)c(C(F)(F)F)c1-n1cc(-c2ccc(Cl)c(C(=O)NC3(C#N)CC3)c2)cn1 (stereo not shown) [compound 15]	≥ 80	≥ 80	≥ 80	≥ 80	≥ 80	≥ 80	≥ 80	≥ 80	mortality at 0.781 ppm (Thrips tabaci [3]; 0.781 ppm): 0%; mortality at 3.12 ppm (Thrips tabaci [3]; 3.12 ppm): 90%; mortality at 12.5 ppm (Thrips tabaci [3]): 90%; mortality at 50 ppm (Thrips tabaci [3]; 50 ppm): 100%; mortality at 200 ppm (Thrips tabaci [3]; 200 ppm): 100%
Cn1nc(OCC(F)(F)C(F)F)c(C(F)(F)F)c1-n1cc(-c2ccc(Cl)c(C(=O)NC3CC3)c2)cn1 [compound 33]	≥ 80	≥ 80	≥ 80	≥ 80	≥ 80	≥ 80	≥ 80	≥ 80	
Cn1nc(OCC(F)(F)C(F)F)c(C(F)(F)F)c1-n1cc(-c2ccc(Cl)c(C(=O)NC3(C#N)CC3)c2)cn1 [compound 30]	≥ 80	≥ 80	≥ 80	≥ 80	≥ 80	≥ 80	≥ 80	≥ 80	
Cn1nc(OC(F)(F)C(F)C(F)(F)F)c(C(F)(F)F)c1-n1cc(-c2ccc(F)c(C(=O)NC3CC3)c2)cn1 (stereo not shown) [compound 60]	≥ 80	≥ 80	≥ 80	≥ 80	≥ 80	≥ 80	≥ 80	≥ 80	
Cn1nc(OCC(F)(F)C(F)(F)F)c(C(F)(F)F)c1-n1cc(-c2ccc(Cl)c(C(=O)NC3CC3)c2)cn1 [compound 32]	≥ 80	≥ 80	≥ 80	≥ 80	≥ 80	≥ 80	≥ 80	≥ 80	
Cn1nc(OC(F)(F)C(F)(C(F)=C(F)C(F)(F)F)C(F)(F)F)c(C(F)(F)F)c1-n1cc(-c2ccc(Cl)c(C(=O)NC3(C#N)CC3)c2)cn1 (stereo not shown) [compound 50]	≥ 80	≥ 80	≥ 80	≥ 80	≥ 80	≥ 80	≥ 80	≥ 80	
Cn1nc(OCC(F)F)c(C(F)(F)F)c1-n1cc(-c2ccc(Cl)c(C(=O)NC3(C#N)CC3)c2)cn1 [compound 23]	≥ 80	≥ 80	≥ 80	≥ 80	≥ 80	≥ 80	≥ 80	≥ 80	

— patent US10750742B2, “Pesticidally active pyrazole derivatives” (SYNGENTA PARTICIPATIONS AG, priority 2015, dated 2020)
